Data on ten compounds can be found in PubChem BioAssay (NCI).

Several values for one entry are separate records, joined by “and”; a condition that tells them apart may be missing. Identical values can stand only once.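 Five compound concentrations were applied to cells in 96-well plates for 48 hours; endpoints were derived by simple linear interpolation of the resulting dose-response curve. The concentration for 50% growth inhibition is given as GI50. TGI: concentration producing complete growth inhibition.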

Among the test systems are CAKI-1 renal; HCT-116 colon; KM12 colon; MDA-MB-231 breast; OVCAR-4 ovarian; SNB-75 CNS; UACC-257 melanoma; UACC-62 melanoma.
Test in all cases: NCI tumour cell line growth inhibition, 48 h

In the case of `CC1=C/C(O)CC(=O)Cc2nc(co2)C(=O)N2CCC=C2C(=O)OC(C(C)C)C(C)/C=C\C(=O)NC/C=C\1` (stereo not drawn), the GI50 with CAKI-1 renal was 44.4 µM; in the assay on HCT-116 colon, 3.63 µM; in the assay with KM12 colon it was 15.1 µM; in the assay with MDA-MB-231 breast, 27.1 µM; in the assay on OVCAR-4 ovarian, 16.1 µM; in the assay with SNB-75 CNS it was 21.4 µM. In addition, the results for the GI50 with UACC-257 melanoma and with UACC-62 melanoma were 12.6 µM and 20.1 µM, respectively. Besides, the TGI in the assay with CAKI-1 renal was > 84.1 µM and 70.1 µM; in the assay with HCT-116 colon it was 14.8 µM and 28.1 µM; in the assay with KM12 colon, 30.3 µM and 25.3 µM; with MDA-MB-231 breast, > 71.4 µM and 61.4 µM; in the assay with OVCAR-4 ovarian it was more than 100 µM; in the assay with SNB-75 CNS, more than 100 µM. Besides, the TGI in the assay with UACC-257 melanoma is 35.5 µM and > 100 µM; in the assay on UACC-62 melanoma, > 57.6 µM and 32.3 µM.

In the case of `O=C1C(CO)=C[C@@H](O)[C@H]2O[C@@H]12`, the TGI in the assay with CAKI-1 renal is more than 100 µM; in the assay with HCT-116 colon, more than 100 µM; in the assay with KM12 colon, more than 100 µM; in the assay on MDA-MB-231 breast, more than 100 µM; in the assay with OVCAR-4 ovarian, 53.4 µM; in the assay with SNB-75 CNS, more than 100 µM. The compound further came in with a TGI in the assay with UACC-62 melanoma of more than 100 µM.

In the case of `CCCC(CCC)Oc1ccc(CCCC2=C(O)c3ccccc3C(=O)C2=O)cc1`, the GI50 in the assay on CAKI-1 renal is 2.46 µM; in the assay on HCT-116 colon, 2.17 µM; in the assay with KM12 colon, 6.18 µM; with MDA-MB-231 breast, 12.3 µM; in the assay with OVCAR-4 ovarian, 8.14 µM; in the assay on SNB-75 CNS, 11.3 µM. The GI50 is 7.07 µM in the assay with UACC-257 melanoma and 3.16 µM in the assay on UACC-62 melanoma. Further, the TGI is 8.66 µM with CAKI-1 renal; 13.6 µM in the assay on HCT-116 colon; 22.3 µM in the assay with KM12 colon; 28.9 µM in the assay on MDA-MB-231 breast; 20.5 µM in the assay with OVCAR-4 ovarian; 26.3 µM in the assay with SNB-75 CNS. In addition, the TGI in the assay on UACC-257 melanoma was determined as 43.1 µM; with UACC-62 melanoma it was 17 µM.

Regarding `CN(N=O)C(=O)Nc1ccc(C(=O)O)cc1`, the TGI in the assay with CAKI-1 renal, in the assay on HCT-116 colon, in the assay on KM12 colon, with MDA-MB-231 breast, in the assay on OVCAR-4 ovarian and in the assay on SNB-75 CNS was more than 100 µM throughout. The TGI in the assay with UACC-257 melanoma and with UACC-62 melanoma was more than 100 µM in each case.

For `C=C1[C@@H](O)C[C@H]2C(C)(C)C[C@H](Cl)C[C@]2(C)[C@H]1C[C@H](O)[C@H]1CC(=O)NC1=O`, the GI50 was 0.0418 µM in the assay with CAKI-1 renal; less than 0.01 µM in the assay on HCT-116 colon; less than 0.012 µM in the assay with KM12 colon; 0.015 µM in the assay on MDA-MB-231 breast; 0.0174 µM in the assay with OVCAR-4 ovarian; 0.0287 µM in the assay on SNB-75 CNS. Besides, the values for the GI50 in the assay with UACC-257 melanoma and in the assay on UACC-62 melanoma were 0.0193 µM and 0.0194 µM, respectively. Further, the TGI in the assay with CAKI-1 renal stood at 1.59 µM; with HCT-116 colon, 0.109 µM; in the assay on KM12 colon, 0.441 µM; in the assay on MDA-MB-231 breast, 0.19 µM; in the assay with OVCAR-4 ovarian it was 0.391 µM; with SNB-75 CNS, 0.706 µM. The TGI in the assay on UACC-257 melanoma was determined as 0.122 µM; in the assay with UACC-62 melanoma, 0.15 µM.

For `c1ccc2c(-c3cnn4cc(-c5ccc(N6CCNCC6)cc5)cnc34)ccnc2c1`, the GI50 was 1.35 µM with CAKI-1 renal; 0.313 µM with HCT-116 colon; 1.15 µM with KM12 colon; 1.48 µM in the assay on MDA-MB-231 breast; 1.5 µM with OVCAR-4 ovarian; 0.441 µM with SNB-75 CNS. The values for the GI50 in the assay with UACC-257 melanoma and in the assay with UACC-62 melanoma were 1.75 µM and 1.41 µM, respectively. Also, the TGI in the assay with CAKI-1 renal stood at 2.77 µM; in the assay on HCT-116 colon, 1.19 µM; in the assay on KM12 colon, 2.39 µM; with MDA-MB-231 breast, 3.03 µM; in the assay on OVCAR-4 ovarian, 3.43 µM; with SNB-75 CNS, 2.12 µM. In addition, the TGI came out at 3.29 µM in the assay with UACC-257 melanoma and 2.78 µM with UACC-62 melanoma.

For `Cc1ccc(N(/C=C/C(=O)C(F)(F)F)CC(=O)c2ccc(Cl)c(Cl)c2)cc1`, the GI50 with CAKI-1 renal was 12.4 µM; in the assay on HCT-116 colon, 4.3 µM; with KM12 colon it was 3.53 µM; with MDA-MB-231 breast, 3.12 µM; in the assay with SNB-75 CNS, 1.67 µM; in the assay with UACC-257 melanoma, 10.3 µM. Further, the GI50 with UACC-62 melanoma was 5.57 µM. Besides, the TGI was 24.9 µM in the assay on CAKI-1 renal; 17.7 µM in the assay with HCT-116 colon; 15 µM in the assay on KM12 colon; 17.9 µM with MDA-MB-231 breast; 16.4 µM in the assay with SNB-75 CNS; 22 µM in the assay on UACC-257 melanoma. The compound also returned a TGI in the assay on UACC-62 melanoma of 19 µM.

As to `Cc1cccc2c(N=Nc3ccccc3[N+](=O)[O-])c(O)[nH]c12`, the TGI in the assay on CAKI-1 renal is 16.3 µM; in the assay with HCT-116 colon it was 34 µM; in the assay with KM12 colon it was more than 58.6 µM; in the assay on MDA-MB-231 breast it was 6.58 µM; in the assay on OVCAR-4 ovarian, 16.9 µM; in the assay on SNB-75 CNS, 31.9 µM. The TGI with UACC-257 melanoma is more than 53.5 µM; with UACC-62 melanoma it was 73.7 µM.

As for `CNC12C3C4C1C1C2C3C41C(=O)N[C@H](C(=O)N(C)[C@H](C[C@@H](OC(C)=O)c1nc(C(=O)N[C@@H](Cc2ccccc2)C[C@H](C)C(=O)OC)cs1)C(C)C)C1CC1` (stereo partly drawn), the GI50 in the assay with CAKI-1 renal is 2.73 µM; with HCT-116 colon, 0.215 µM; in the assay with KM12 colon, 0.276 µM; in the assay with MDA-MB-231 breast, 0.402 µM; in the assay on OVCAR-4 ovarian it was 1.1 µM; with SNB-75 CNS, 0.129 µM. Also, the GI50 was 2.99 µM in the assay with UACC-257 melanoma and 0.0921 µM in the assay with UACC-62 melanoma. In addition, the TGI is more than 15 µM in the assay on CAKI-1 renal; more than 4.1 µM in the assay with HCT-116 colon; 6.69 µM in the assay with KM12 colon; 3.33 µM in the assay with MDA-MB-231 breast; more than 15 µM with OVCAR-4 ovarian; 2.73 µM in the assay on SNB-75 CNS. Moreover, the figures for the TGI with UACC-257 melanoma and with UACC-62 melanoma were more than 15 µM and 2.98 µM, respectively.

Take `CCOC(=O)Nc1ccc(C(=O)/C=C/c2ccccc2)cc1`: the GI50 in the assay with CAKI-1 renal was 79 µM; with HCT-116 colon, 3.31 µM; with KM12 colon it was 4.8 µM; in the assay on MDA-MB-231 breast it was 33.4 µM; in the assay with OVCAR-4 ovarian it was 43.8 µM; in the assay with SNB-75 CNS it was 31.6 µM. Besides, the GI50 with UACC-257 melanoma is 55 µM; in the assay on UACC-62 melanoma, 20.1 µM. Also, the TGI in the assay on CAKI-1 renal was more than 100 µM; in the assay on HCT-116 colon, 11.4 µM; in the assay with KM12 colon, 17.6 µM; with MDA-MB-231 breast, more than 100 µM; in the assay with OVCAR-4 ovarian, more than 100 µM; in the assay with SNB-75 CNS, more than 100 µM. Moreover, the TGI in the assay with UACC-257 melanoma and in the assay with UACC-62 melanoma was more than 100 µM throughout.
